For orientation: IC50 means the concentration at which inhibition is half-maximal.

From patent publication US20260070945A1, “MACROCYCLIC IMMUNOMODULATORS” (Bristol-Myers Squibb Company, priority 2022, published 2026) come the findings set out here.

*1 amine or outer side, *2 acyl side, *3 side chain or, on linkers, in order; H or OH if unused. Where a SMILES comes first, the peptide text is derived from it. Bridges are numbered along the chain shown (N, C = ends). [ ]: non-standard residue; d: D form. The star is where a group is joined. ξ: configuration not given here. Phe(3-CF3) = N[C@@H](Cc1cccc(C(F)(F)F)c1)C(=O)O; Phe(4-CONH2) = NC(=O)c1ccc(C[C@H](N)C(=O)O)cc1; Phe(4-COOH) = N[C@@H](Cc1ccc(C(=O)O)cc1)C(=O)O; Bip = N[C@@H](Cc1ccc(-c2ccccc2)cc1)C(=O)O; Phe(4-NH2) = Nc1ccc(C[C@H](N)C(=O)O)cc1; NH(CH2)14COOH = O=C(O)CCCCCCCCCCCCCCN*; Phe(3-Me) = Cc1cccc(C[C@H](N)C(=O)O)c1; NH(CH2)12COOH = O=C(O)CCCCCCCCCCCCN*; ξγGlu = O=C(O)C(CCC(=O)[*:2])N[*:1]; Val(3-OH) = CC(C)(O)[C@H](N)C(=O)O; 4Pal = N[C@@H](Cc1ccncc1)C(=O)O; Cha = N[C@@H](CC1CCCCC1)C(=O)O; Cit = NC(=O)NCCC[C@H](N)C(=O)O; Ile(3ξ) = CCC(C)[C@H](N)C(=O)O; Thr(3ξ) = CC(O)[C@H](N)C(=O)O; Carboxymethyl = O=C(O)C*; NMeA = CN[C@@H](C)C(=O)O; Orn = NCCC[C@H](N)C(=O)O; Aun = NCCCCCCCCCCC(=O)O; Dab = NCC[C@H](N)C(=O)O; Dap = NC[C@H](N)C(=O)O; AEEA = NCCOCCOCC(=O)O

In the first experiment the target is T1, PD-1/PD-L1 interaction (PE-labeled human PD-L1-Ig binding to Jurkat cell line over-expressing human PD-1) (Homo sapiens, UniProt Q15116).
T1 construct: expressed in transfected cells; host or cells: Jurkat
T1 sequence (Q15116 25-288): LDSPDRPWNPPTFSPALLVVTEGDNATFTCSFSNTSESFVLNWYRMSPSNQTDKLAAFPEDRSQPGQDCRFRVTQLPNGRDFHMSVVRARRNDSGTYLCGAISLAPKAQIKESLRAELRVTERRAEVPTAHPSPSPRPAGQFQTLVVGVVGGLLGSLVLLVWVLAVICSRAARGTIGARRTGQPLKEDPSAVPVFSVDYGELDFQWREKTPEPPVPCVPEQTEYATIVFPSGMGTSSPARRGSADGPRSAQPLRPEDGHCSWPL
Put plainly: Jurkat-PD-1 Cell Binding High-Content Screening Assay (CBA). The note with it: Jurkat-hPD-1 cells, PE-labeled PD-L1-Ig 20 nM final; read-out: Jurkat HPD1 PDL1 IC50. In a few lines:
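Jurkat-hPD-1 cells (8×10^3/well) in DMEM with 10% fetal calf serum were preincubated with compound for 2 h at 37 °C. PE-labeled PD-L1-Ig was then added at 20 nM final for 1 h. Cells were fixed in paraformaldehyde with Hoechst 33342, washed and imaged by high-content imaging.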
In the case of `Cc1cccc(C[C@@H]2NC(=O)[C@H](CC(=O)O)NC(=O)[C@H](Cc3ccc(OCC(=O)O)cc3)NC(=O)[C@H](Cc3ccc(N)cc3)NC(=O)CSC[C@@H](C(=O)N[C@@H](CCN)C(=O)NCCCCCCCCCCC(=O)O)NC(=O)[C@H](CO)NC(=O)[C@H](C(C)C)NC(=O)[C@H](CC3CCCCC3)NC(=O)[C@H](CCN)NC(=O)[C@@H](CC(C)C)NC(=O)[C@H](C)N(C)C(=O)[C@H](Cc3ccc(O)cc3)NC(=O)[C@H](Cc3ccc(-c4ccccc4)cc3)NC(=O)[C@H](Cc3ccc(OCC(=O)O)cc3)NC2=O)c1` [Example 1279] ({CH2CO}-[Phe(4-NH2)]Y(Carboxymethyl)D[Phe(3-Me)]Y(Carboxymethyl)[Bip]Y[NMeA][dL][Dab][Cha]VSC[Dab][Aun]-OH; thioether N-14), the half-inhibitory concentration (IC50) turned out to be 0.0393 µM.
For the compound `CC[C@H](C)[C@@H]1NC(=O)[C@H](Cc2ccc(-c3ccccc3)cc2)NC(=O)[C@H](CC(C)C)NC(=O)[C@H](Cc2c[nH]c3ccccc23)NC(=O)[C@H](CC(=O)O)NC(=O)[C@H](Cc2ccc(C(=O)O)cc2)NC(=O)[C@H](Cc2ccc(OCC(=O)O)cc2)NC(=O)CSC[C@@H](C(=O)N[C@@H](CN)C(=O)NCCOCCOCC(=O)NCCCCCCCCCCC(=O)O)NC(=O)[C@H](CO)NC(=O)[C@H](C(C)C)NC(=O)[C@H](CC2CCCCC2)NC(=O)[C@H](CCN)NC(=O)[C@@H](CC(C)C)NC(=O)[C@H](C)N(C)C1=O` [Example 1076] ({CH2CO}-Y(Carboxymethyl)[Phe(4-COOH)]DWL[Bip]I[NMeA][dL][Dab][Cha]VSC[Dap][AEEA][Aun]-OH; thioether N-14), the 50% inhibitory concentration (IC50) worked out at 0.0165 µM.
Same read-out and setting: in the case of `CC(C)C[C@@H]1NC(=O)[C@H](Cc2c[nH]c3ccccc23)NC(=O)[C@H](CC(=O)O)NC(=O)[C@H](Cc2ccc(C(=O)O)cc2)NC(=O)[C@H](Cc2ccc(OCC(=O)O)cc2)NC(=O)CSC[C@@H](C(=O)N[C@@H](CCN)C(=O)NCCOCCOCC(=O)NCCCCCCCCCCC(=O)O)NC(=O)[C@H](CCC(=O)O)NC(=O)[C@H](C(C)(C)O)NC(=O)[C@H](CC2CCCCC2)NC(=O)[C@H](CCN)NC(=O)[C@@H](CC(C)C)NC(=O)[C@H](C)N(C)C(=O)[C@H](C(C)C)NC(=O)[C@H](Cc2ccc(-c3ccccc3)cc2)NC1=O` [Example 1123] ({CH2CO}-Y(Carboxymethyl)[Phe(4-COOH)]DWL[Bip]V[NMeA][dL][Dab][Cha][Val(3-OH)]EC[Dab][AEEA][Aun]-OH; thioether N-14) it was 0.0093 µM.
In the case of `Cc1cccc(C[C@@H]2NC(=O)[C@H](CC(=O)O)NC(=O)[C@H](Cc3ccc(OCC(=O)O)cc3)NC(=O)[C@H](Cc3ccncc3)NC(=O)CSC[C@@H](C(=O)N[C@@H](CCN)C(=O)NCCOCCOCC(=O)NCCCCCCCCCCC(=O)O)NC(=O)[C@H](CCC(=O)O)NC(=O)[C@H](C(C)(C)O)NC(=O)[C@H](CC3CCCCC3)NC(=O)[C@H](CCN)NC(=O)[C@@H](CC(C)C)NC(=O)[C@H](C)N(C)C(=O)[C@H](Cc3ccc(OCC(=O)O)cc3)NC(=O)[C@H](Cc3ccc(-c4ccccc4)cc3)NC(=O)[C@H](Cc3ccc(OCC(=O)O)cc3)NC2=O)c1` [Example 1425] ({CH2CO}-[4Pal]Y(Carboxymethyl)D[Phe(3-Me)]Y(Carboxymethyl)[Bip]Y(Carboxymethyl)[NMeA][dL][Dab][Cha][Val(3-OH)]EC[Dab][AEEA][Aun]-OH; thioether N-14), the IC50 was 0.157 µM.
Same read-out and setting: then `CC(C)C[C@@H]1NC(=O)[C@H](Cc2c[nH]c3ccccc23)NC(=O)[C@H](CC(=O)O)NC(=O)[C@H](Cc2ccncc2)NC(=O)[C@H](Cc2ccc(OCC(=O)O)cc2)NC(=O)CSC[C@@H](C(=O)NCC(=O)NCCOCCOCC(=O)N[C@@H](CCN)C(=O)NCCCCCCCCCCC(=O)O)NC(=O)[C@H](CCCNC(N)=O)NC(=O)[C@H](C(C)C)NC(=O)[C@H](CC2CCCCC2)NC(=O)[C@H](CCN)NC(=O)[C@@H](CC(C)C)NC(=O)[C@H](C)N(C)C(=O)[C@H](C(C)C)NC(=O)[C@H](Cc2ccc(-c3ccccc3)cc2)NC1=O` [Example 2170] ({CH2CO}-Y(Carboxymethyl)[4Pal]DWL[Bip]V[NMeA][dL][Dab][Cha]V[Cit]CG[AEEA][Dab][Aun]-OH; thioether N-14), with 0.0086 µM; and `CCC(C)[C@@H]1NC(=O)[C@H](Cc2ccc(-c3ccccc3)cc2)NC(=O)[C@H](Cc2ccc(OCC(=O)O)cc2)NC(=O)[C@H](Cc2cccc(C)c2)NC(=O)[C@H](CC(=O)O)NC(=O)[C@H](Cc2ccc(C(=O)O)cc2)NC(=O)[C@H](Cc2ccncc2)NC(=O)CSC[C@@H](C(=O)N[C@@H](CCN)C(=O)NCCOCCOCC(=O)NCCCCCCCCCCC(=O)O)NC(=O)[C@H](CCCN)NC(=O)[C@H](C(C)C)NC(=O)[C@H](CC2CCCCC2)NC(=O)[C@H](CCN)NC(=O)[C@@H](CC(C)C)NC(=O)[C@H](C)N(C)C1=O` (stereo partly drawn) [Example 1407] ({CH2CO}-[4Pal][Phe(4-COOH)]D[Phe(3-Me)]Y(Carboxymethyl)[Bip][Ile(3ξ)][NMeA][dL][Dab][Cha]V[Orn]C[Dab][AEEA][Aun]-OH; thioether N-14), with 0.0899 µM.
On the same count and under the same terms, then `CC(C)C[C@@H]1NC(=O)[C@H](Cc2c[nH]c3ccccc23)NC(=O)[C@H](CC(=O)O)NC(=O)[C@H](Cc2ccc(C(=O)O)cc2)NC(=O)[C@H](Cc2ccc(OCC(=O)O)cc2)NC(=O)CSC[C@@H](C(=O)NCC(=O)N[C@@H](CC(=O)O)C(=O)NCCCCCCCCCCC(=O)O)NC(=O)[C@H](CO)NC(=O)[C@H](C(C)C)NC(=O)[C@H](CC2CCCCC2)NC(=O)[C@H](CCN)NC(=O)[C@@H](CC(C)C)NC(=O)[C@H](C)N(C)C(=O)[C@H](C(C)C)NC(=O)[C@H](Cc2ccc(-c3ccccc3)cc2)NC1=O` [Example 1041] ({CH2CO}-Y(Carboxymethyl)[Phe(4-COOH)]DWL[Bip]V[NMeA][dL][Dab][Cha]VSCGD[Aun]-OH; thioether N-14), with 0.0138 µM.
Still for that read-out and setting: in the case of `CC(C)C[C@H]1NC(=O)[C@H](C)N(C)C(=O)[C@H](Cc2ccc(OCC(=O)O)cc2)NC(=O)[C@H](Cc2ccc(-c3ccccc3)cc2)NC(=O)[C@H](Cc2ccc(OCC(=O)O)cc2)NC(=O)[C@H](Cc2c[nH]c3ccccc23)NC(=O)[C@H](CC(=O)O)NC(=O)[C@H](Cc2ccc(OCC(=O)O)cc2)NC(=O)[C@H]([C@@H](C)O)NC(=O)CSC[C@@H](C(=O)N[C@@H](CCN)C(=O)NCCOCCOCC(=O)NCCCCCCCCCCC(=O)O)NC(=O)[C@H](CO)NC(=O)[C@H](C(C)C)NC(=O)[C@H](CC2CCCCC2)NC(=O)[C@H](CCN)NC1=O` [Example 1391] ({CH2CO}-TY(Carboxymethyl)DWY(Carboxymethyl)[Bip]Y(Carboxymethyl)[NMeA][dL][Dab][Cha]VSC[Dab][AEEA][Aun]-OH; thioether N-14) it was 0.0258 µM; in that of `Cc1cccc(C[C@@H]2NC(=O)[C@H](CC(=O)O)NC(=O)[C@H](Cc3ccc(C(N)=O)cc3)NC(=O)[C@H](C(C)O)NC(=O)CSC[C@@H](C(=O)N[C@@H](CCN)C(=O)NCCOCCOCC(=O)NCCCCCCCCCCC(=O)O)NC(=O)[C@H](CCC(=O)O)NC(=O)[C@H](C(C)C)NC(=O)[C@H](CC3CCCCC3)NC(=O)[C@H](CCN)NC(=O)[C@@H](CC(C)C)NC(=O)[C@H](C)N(C)C(=O)[C@H](Cc3ccc(OCC(=O)O)cc3)NC(=O)[C@H](Cc3ccc(-c4ccccc4)cc3)NC(=O)[C@H](Cc3ccc(C(=O)O)cc3)NC2=O)c1` (stereo partly drawn) [Example 2480] ({CH2CO}-[Thr(3ξ)][Phe(4-CONH2)]D[Phe(3-Me)][Phe(4-COOH)][Bip]Y(Carboxymethyl)[NMeA][dL][Dab][Cha]VEC[Dab][AEEA][Aun]-OH; thioether N-14), 0.0174 µM.
For `COC[C@@H]1NC(=O)CSC[C@@H](C(=O)N[C@@H](CCN)C(=O)NCCOCCOCC(=O)NC(CCC(=O)NCCOCCOCC(=O)NCCCCCCCCCCCCC(=O)O)C(=O)O)NC(=O)[C@H](CCCCNC(C)=O)NC(=O)[C@H](C(C)(C)O)NC(=O)[C@H](CC2CCCCC2)NC(=O)[C@H](CCN)NC(=O)[C@@H](CC(C)C)NC(=O)[C@H](C)N(C)C(=O)[C@H](CCCNC(N)=O)NC(=O)[C@H](Cc2ccc(-c3ccccc3)cc2)NC(=O)[C@H](Cc2ccc(C(=O)O)cc2)NC(=O)[C@H](Cc2cccc(C(F)(F)F)c2)NC(=O)[C@H](CC(=O)O)NC(=O)[C@H](Cc2ccc(OCC(=O)O)cc2)NC1=O` (stereo partly drawn) [Example 1168] ({CH2CO}-S(Me)Y(Carboxymethyl)D[Phe(3-CF3)][Phe(4-COOH)][Bip][Cit][NMeA][dL][Dab][Cha][Val(3-OH)]K(Ac)C[Dab][AEEA][ξγGlu][AEEA]-{NH(CH2)12COOH}; thioether N-14), the IC50 turned out to be 0.0148 µM.
For the compound `CC(C)C[C@@H]1NC(=O)[C@H](Cc2c[nH]c3ccccc23)NC(=O)[C@H](CC(=O)O)NC(=O)[C@H](Cc2ccc(C(=O)O)cc2)NC(=O)[C@H](Cc2ccc(OCC(=O)O)cc2)NC(=O)CSC[C@@H](C(=O)NCC(=O)N[C@@H](CC(=O)O)C(=O)NCC(=O)NCCCCCCCCCCC(=O)O)NC(=O)[C@H](CO)NC(=O)[C@H](C(C)C)NC(=O)[C@H](CC2CCCCC2)NC(=O)[C@H](CCN)NC(=O)[C@@H](CC(C)C)NC(=O)[C@H](C)N(C)C(=O)[C@H](C(C)C)NC(=O)[C@H](Cc2ccc(-c3ccccc3)cc2)NC1=O` [Example 1033] ({CH2CO}-Y(Carboxymethyl)[Phe(4-COOH)]DWL[Bip]V[NMeA][dL][Dab][Cha]VSCGDG[Aun]-OH; thioether N-14), the IC50 is 0.0205 µM.

The same experiment, now with this note: PE-labeled PD-L1-Ig 20 nM final, Jurkat-hPD-1 cells; read-out: Jurkat HPD1 PDL1 IC50.
Consider `CC(=O)NCCCC[C@@H]1NC(=O)[C@H](C(C)(C)O)NC(=O)[C@H](CC2CCCCC2)NC(=O)[C@H](CCN)NC(=O)[C@@H](CC(C)C)NC(=O)[C@H](C)N(C)C(=O)[C@H](CCC(N)=O)NC(=O)[C@H](Cc2ccc(-c3ccccc3)cc2)NC(=O)[C@H](Cc2ccc(C(=O)O)cc2)NC(=O)[C@H](Cc2cccc(C(F)(F)F)c2)NC(=O)[C@H](CC(=O)O)NC(=O)[C@H](Cc2ccc(OCC(=O)O)cc2)NC(=O)[C@H](Cc2ccc(OCC(=O)O)cc2)NC(=O)CSC[C@@H](C(=O)N[C@@H](CCN)C(=O)NCCOCCOCC(=O)NCCOCCOCC(=O)NCCCCCCCCCCCCCCC(=O)O)NC1=O` [Example 2608] ({CH2CO}-Y(Carboxymethyl)Y(Carboxymethyl)D[Phe(3-CF3)][Phe(4-COOH)][Bip]Q[NMeA][dL][Dab][Cha][Val(3-OH)]K(Ac)C[Dab][AEEA][AEEA]-{NH(CH2)14COOH}; thioether N-14), for which the IC50 is 0.168 µM.
